How the values were obtained:
[1] = Inhibition of farnesyl protein transferase assessed as transfer of [3H]farnesyl from [3H]farnesyl pyrophosphate to […]
NIH3T3 = assay: Cytotoxicity against mouse H-Ras transformed NIH/3T3 cells by soft agar colony formation assay; format: functional, cell-based
Rattus norvegicus = assay: (§1) AUC (0 to 6 hrs) in rat at 10 mg/kg; format: ADME, organism-based, Plasma; parameters: time < 6 hr, dose 10 mg/kg; details: in vivo, 6 h
[2] = as §1; format: ADME, organism-based, Plasma; parameters: time < 6 hr, dose 10 mg/kg; details: plasma
[3] = Mus musculus, NIH3T3, read-out: IC50

IC50 [1] | AUC (Rattus norvegicus) | AUC(0-t) at 6 h [2] | SMILES | IC50 (NIH3T3; [3]) | IC50 (NIH3T3; nih3t3)
0.5 nM | 0.1 µM·h | – | Cn1cncc1[C@H](O)C1=Cc2cccnc2[C@@H](N2CCN(C(=O)Nc3ccc(C#N)cc3)CC2)c2ccc(Cl)cc21 | 0.5 nM | –
0.75 nM | – | – | CC(C)OC(=O)N1CCN([C@H]2c3ccc(Cl)cc3C([C@@H](O)c3cncn3C)=Cc3cccnc32)CC1 | 0.5 nM | –
1 nM | – | – | Cn1cncc1[C@H](O)C1=Cc2cccnc2[C@@H](N2CCN(C(=O)OC3CCCCC3)CC2)c2ccc(Cl)cc21 | 1 nM | –
0.76 nM | – | – | Cn1cncc1[C@H](O)C1=Cc2cccnc2[C@@H](N2CCN(C(=O)OC3CCCC3)CC2)c2ccc(Cl)cc21 | 0.5 nM | –
2.1 nM | – | – | CO[C@@H](C1=Cc2cccnc2[C@@H](N2CCN(C(=O)OC(C)(C)C)CC2)c2ccc(Cl)cc21)c1cncn1C | 4 nM | –
0.38 nM | – | 2.57 µM·h | Cn1cncc1[C@H](O)C1=Cc2cccnc2[C@@H](N2CCN(C(=O)OC(C)(C)C)CC2)c2ccc(Cl)cc21 | 0.5 nM | –
0.29 nM | – | – | Cn1cncc1CC1=Cc2cccnc2[C@@H](N2CCN(C(=O)Nc3ccc(C#N)cc3)CC2)c2ccc(Cl)cc21 | 0.5 nM | –
0.13 nM | – | – | Cn1cncc1[C@H](O)C1=Cc2cccnc2[C@@H](N2CCN(C(=O)NCc3ccccc3)CC2)c2ccc(Cl)cc21 | 2.7 nM | –
0.47 nM | – | – | Cn1cncc1[C@H](O)C1=Cc2cccnc2[C@@H](N2CCN(C(=O)NC3CCCCC3)CC2)c2ccc(Cl)cc21 | 18 nM | –
9.6 nM | – | – | Cn1cncc1CC1=Cc2cccnc2[C@H](N2CCN(C(=O)Nc3ccc(C#N)cc3)CC2)c2ccc(Cl)cc21 | – | Not Active
12 nM | – | – | Cn1cncc1[C@@H](O)C1=Cc2cccnc2[C@@H](N2CCN(C(=O)OC(C)(C)C)CC2)c2ccc(Cl)cc21 | – | Not Active
4.8 nM | – | – | CO[C@H](C1=Cc2cccnc2[C@@H](N2CCN(C(=O)OC(C)(C)C)CC2)c2ccc(Cl)cc21)c1cncn1C | 10 nM | –
5.5 nM | – | – | CC(=O)O[C@H](C1=Cc2cccnc2[C@@H](N2CCN(C(=O)OC(C)(C)C)CC2)c2ccc(Cl)cc21)c1cncn1C | 1 nM | –
0.3 nM | – | – | Cn1cncc1[C@H](O)C1=Cc2cccnc2[C@@H](N2CCN(C(=O)OC3(C)CCCCC3)CC2)c2ccc(Cl)cc21 | 1 nM | –
0.4 nM | – | – | Cn1cncc1[C@H](O)C1=Cc2cccnc2[C@@H](N2CCN(C(=O)NC(C)(C)C)CC2)c2ccc(Cl)cc21 | 0.5 nM | –
0.31 nM | – | – | N#Cc1ccc(NC(=O)N2CCN([C@H]3c4ccc(Cl)cc4C(Cc4cnc[nH]4)=Cc4cccnc43)CC2)cc1 | 4 nM | –

— ChEMBL document CHEMBL1159116, “Discovery of C-imidazole azaheptapyridine FPT inhibitors” (Bioorg Med Chem Lett, 2010)
